This passage reports median survival and Kd results from patent publication US11427637B2, “Methods of treating PD-L1 expressing cancer” (Mayo Foundation for Medical Education and Research, priority 2016, dated 2022).

For assay [1], the system named is PD-L1 positive C8161 melanoma tumor cells. Kind of assay: In vivo efficacy, C8161 melanoma tumors in athymic nude mice. The conditions noted are these: one IV tail vein injection; atezolizumab 18 mg/kg, ABX 45 mg/kg, AA130 = 18 mg/kg atezolizumab and 45 mg/kg ABX. As for the experimental part: Athymic nude mice (Harlan Sprague Dawley) were injected with 2×10^6 PD-L1 positive C8161 melanoma tumor cells. The tumors were allowed to grow until about 600 mm^3 and were treated by 100 μl IV tail vein injection with saline, atezolizumab alone (18 mg/kg), ABX alone (45 mg/kg) and AA130 (18 mg/kg atezolizumab and 45 mg/kg ABX) one time (FIGS. 5A-5D). Tumor growth was monitored 3 times/week. Tumor size was calculated with the equation: (length×width^2)/2.
Kaplan Meier curves were generated using Graph Pad software. The median survival for each group was 14, 13, 16, and 21.5 days for saline, atezolizumab, ABX and AA130, respectively. Survival differences between AA130 and all other groups were significant with p-values of 0.0008 for saline, 0.0015 for atezolizumab, and 0.0113 for Abraxane.

The target in a further assay is T1, ABX (Homo sapiens, UniProt P02768).
T1 construct: purchased Celgene Corp
Kind of assay: Biolayer interferometry (BLItz) binding of atezolizumab to ABX. The conditions noted are these: biotinylated atezolizumab on streptavidin probe; ABX 100, 500, 1000 μg/mL in 1×PBS; read-out: Kd (binding affinity between atezolizumab and ABX). As for the experimental part: To determine whether atezolizumab and ABX are capable of interacting to form nanoparticle complexes, Biolayer interferometry (BLItz) (Forte Bioscience) was performed using streptavidin probes. 100 ug/ml of biotinylated atezolizumab in 1×PBS was bound to the streptavidin probe. After washing unbound atezolizumab from the probe, the antibody-bound probe was exposed to ABX at concentrations of 100, 500, 1000 μg/mL in 1×PBS. An antibody probe exposed to PBS was used as background and background was subtracted. BLItz software was used to calculate dissociation constants (FIG. 1).

With “atezolizumab: fully humanized, Fc-modified monoclonal antibody of IgG1 isotype against PD-L1”, the median survival in assay [1] was 13 days. In the assay with ABX, the Kd came out at 1.46 nM.
